Results from publication PMC10210398, “Genomic, functional and structural analyses elucidate evolutionary innovation within the sea anemone 8 toxin family” (BMC Biology, 2023).
“Also recorded” adds a separate entry of the source. Bridge positions count the residues as written; N and C are the ends. Ends that are not written are not given here.

Assays:
[1] = tested on: hTRPA1; experiment: Whole-cell patch-clamp, hTRPA1 in transiently transfected CHO cells; format: cell-based, human
Protocol: (§1) CHO and human embryonic kidney (HEK 293) cells were grown in DMEM-high glucose supplemented with 10% FBS, 2 mM L-glutamine, 100 U/mL penicillin-g, and 100 μg/mL streptomycin (Invitrogen) at 37 °C in a 5% CO2 and 95% air humidified atmosphere. Cells were passaged twice per week following a 5-min incubation in PBS containing 0.2 g/L EDTA (Invitrogen, Carlsbad, CA).
(§2) CHO cells (ATCC) were transiently transfected with plasmids encoding hKV1.1, hKV1.2, hKV10.1, hKCa3.1, hTRPA1, or hNaV1.7 using Lipofectamine 2000 (Invitrogen, Carlsbad, CA) following the manufacturer’s protocol, then cultured under standard conditions. The cells were co-transfected with a plasmid encoding green fluorescent protein (GFP) at a molar ratio of 10:1 except for hKV1.1, hKV1.2, and hKCa3.1 for which GFP-tagged ion channel vectors were used. Currents were recorded 24–36 h after transfection. […] Transfected cells were washed twice with 2 mL of ECS (see below) and re-plated onto 35-mm polystyrene cell culture dishes (Cellstar, Greiner Bio-One). hKV1.3 currents were recorded from activated peripheral blood mononuclear cells (PBMCs, see below) 3–4 days after activation. […]
(§3) Conventional whole-cell patch-clamp electrophysiology was used to record ionic currents. […] Data were analysed using Prism 8 (GraphPad, CA, USA) and ClampFit 10.5 software (Molecular Devices Inc., Sunnyvale, CA). […]

[2] = biological target: T1, hKV1.2 (Homo sapiens, UniProt P16389); experiment: Whole-cell patch-clamp, hKV1.2 in transiently transfected CHO cells; format: cell-based; conditions: for RCF_mean (remaining current fraction, I/I0): mean
T1 construct: GFP; expressed in transfected cells; host or cells: CHO cells (ATCC), transient transfection with Lipofectamine 2000
T1 sequence (P16389 whole entry): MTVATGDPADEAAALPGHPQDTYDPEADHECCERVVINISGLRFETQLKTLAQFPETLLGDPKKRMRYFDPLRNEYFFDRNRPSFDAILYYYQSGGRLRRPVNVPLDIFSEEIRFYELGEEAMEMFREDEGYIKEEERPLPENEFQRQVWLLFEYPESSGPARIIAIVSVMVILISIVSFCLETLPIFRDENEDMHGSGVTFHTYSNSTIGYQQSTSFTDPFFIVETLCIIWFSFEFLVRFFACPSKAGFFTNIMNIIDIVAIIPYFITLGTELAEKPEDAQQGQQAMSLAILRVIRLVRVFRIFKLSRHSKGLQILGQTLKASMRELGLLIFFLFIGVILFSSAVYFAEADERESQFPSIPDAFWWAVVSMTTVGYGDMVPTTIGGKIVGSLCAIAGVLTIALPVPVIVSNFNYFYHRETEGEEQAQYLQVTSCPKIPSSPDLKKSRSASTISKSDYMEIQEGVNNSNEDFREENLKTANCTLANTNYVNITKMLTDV
Protocol: as §1
(§4) CHO cells (ATCC) were transiently transfected with plasmids encoding hKV1.1, hKV1.2, hKV10.1, hKCa3.1, hTRPA1, or hNaV1.7 using Lipofectamine 2000 (Invitrogen, Carlsbad, CA) following the manufacturer’s protocol, then cultured under standard conditions. The cells were co-transfected with a plasmid encoding green fluorescent protein (GFP) at a molar ratio of 10:1 except for hKV1.1, hKV1.2, and hKCa3.1 for which GFP-tagged ion channel vectors were used. Currents were recorded 24–36 h after transfection. […] HEK 293 cells stably expressing the hKv11.1 channel (hERG, hKCNH2 gene, a kind gift from H. Wulff, University of California, Davis, CA) and mKCa1.1 channel (BKCa, hKCNMA1, a kind gift from C. Beeton, Baylor College of Medicine, Houston, TX) were used. hTRPV1 channels were expressed in a stable manner in CHO cells. Transfected cells were washed twice with 2 mL of ECS (see below) and re-plated onto 35-mm polystyrene cell culture dishes (Cellstar, Greiner Bio-One). hKV1.3 currents were recorded from activated peripheral blood mononuclear cells (PBMCs, see below) 3–4 days after activation. Human veinous blood was obtained from anonymised healthy donors. PBMCs were isolated using Histopaque1077 (Sigma-Aldrich Hungary, Budapest, Hungary) density gradient centrifugation. Cells obtained were resuspended in RPMI 1640 medium containing 10% foetal calf serum (Sigma-Aldrich Hungary, Budapest, Hungary), 100 μg/mL penicillin, 100 μg/mL streptomycin, and 2 mM L-glutamine, seeded in a 24-well culture plate at a density of 5–6 × 10^5 cells/mL, and grown in a 5% CO2 incubator at 37 °C for 3–5 days. Phytohemagglutinin A (PHA, Sigma-Aldrich Hungary, Budapest, Hungary) was added to the medium at 10 μg/mL to amplify the KV1.3 expression. Cells were washed gently twice with 2 mL of ECS for the patch-clamp experiments.
Conventional whole-cell patch-clamp electrophysiology was used to record ionic currents. Micropipettes were pulled in four stages using a Flaming Brown automatic pipette puller (Sutter Instruments, San Rafael, CA) from Borosilicate Standard Wall with Filament aluminium–silicate glass (Harvard Apparatus Co., Holliston, MA) with tip diameters between 0.5 and 1 μm and heat polished to a tip resistance of 2–8 MΩ. All measurements were carried out by using Axopatch 200B amplifier connected to a personal computer using Axon Digidata 1550A data acquisition hardware (Molecular Devices, Sunnyvale, CA). In general, the holding potential was − 120 mV. Records were discarded when a leak at the holding potential was > 10% of the peak current at the test potential. Series resistance compensation up to 70% was used to minimise voltage errors and achieve proper voltage-clamp conditions. Experiments were performed at room temperature (20–24 °C). Data were analysed using Prism 8 (GraphPad, CA, USA) and ClampFit 10.5 software (Molecular Devices Inc., Sunnyvale, CA). Before analysis, whole-cell current traces were corrected for ohmic leakage and digitally filtered with a three-point boxcar smoothing filter. For hKCa3.1, hTRPA1 and hTRPV1, the reversal potential for K^+ was determined and only those currents were analysed for which the reversal potential fell into the range of the theoretical reversal potential ± 5 mV (− 86.5 ± 5 mV for KCa3.1, and 0 ± 5 mV for hTRPA1 and hTRPV1).

[3] = tested on: hTRPV1; experiment: Whole-cell patch-clamp, hTRPV1 stably expressed in CHO cells; format: cell-based, human
Protocol: as §1, §2, §3

[4] = tested on: mKCa1.1 channel; format: cell-based
Protocol: as §1
as §4, with “PBMCs were isolated using Histopaque1077 (Sigma-Aldrich Hungary, Budapest, Hungary) density gradient centrifugation. Cells obtained were resuspended in RPMI 1640 medium containing 10% foetal calf serum (Sigma-Aldrich Hungary, Budapest, Hungary), 100 μg/mL penicillin, 100 μg/mL streptomycin, and 2 mM L-glutamine, seeded in a 24-well culture plate at a density of 5–6 × 10^5 cells/mL, and grown in a 5% CO2 incubator at 37 °C for 3–5 days. Phytohemagglutinin A (PHA, Sigma-Aldrich Hungary, Budapest, Hungary) was added to the medium at 10 μg/mL to amplify the KV1.3 expression. Cells were washed gently twice with 2 mL of ECS for the patch-clamp experiments.” left out
(§5) Conventional whole-cell patch-clamp electrophysiology was used to record ionic currents. […] Data were analysed using Prism 8 (GraphPad, CA, USA) and ClampFit 10.5 software (Molecular Devices Inc., Sunnyvale, CA). […] For hKCa3.1, hTRPA1 and hTRPV1, the reversal potential for K^+ was determined and only those currents were analysed for which the reversal potential fell into the range of the theoretical reversal potential ± 5 mV (− 86.5 ± 5 mV for KCa3.1, and 0 ± 5 mV for hTRPA1 and hTRPV1).

[5] = tested on: hKV1.1; format: cell-based, human
Protocol: as §1
as §4, with “PBMCs were isolated using Histopaque1077 (Sigma-Aldrich Hungary, Budapest, Hungary) density gradient centrifugation. Cells obtained were resuspended in RPMI 1640 medium containing 10% foetal calf serum (Sigma-Aldrich Hungary, Budapest, Hungary), 100 μg/mL penicillin, 100 μg/mL streptomycin, and 2 mM L-glutamine, seeded in a 24-well culture plate at a density of 5–6 × 10^5 cells/mL, and grown in a 5% CO2 incubator at 37 °C for 3–5 days. Phytohemagglutinin A (PHA, Sigma-Aldrich Hungary, Budapest, Hungary) was added to the medium at 10 μg/mL to amplify the KV1.3 expression. Cells were washed gently twice with 2 mL of ECS for the patch-clamp experiments.” left out
as §5

GYGKGRPGCYNHYDESICGGVIKDEHCKAGRGSRMGKFALKNCQFQCGLC (disulfide 9-47, 18-50, 27-43) [SA8]
RCF_mean (remaining current fraction, I/I0) ([1]; TRPA1, 100 nM SA8, mean, n = 5, SEM 0.0123957): 0.9628 | effect on current, in words ([1]; hTRPA1, CHO cells, activated by 100 µM AITC, 100 nM SA8): no effect; also recorded: did not inhibit | association and dissociation rates ([2]; 100 nM SA8, hKV1.2): rapid | reversibility of block upon washing ([2]; 100 nM SA8, hKV1.2, inhibitor-free solution): almost fully reversible | time for development of equilibrium block and recovery ([2]; 100 nM SA8, hKV1.2, recovery up to ~ 85% of control current): ~ 1 min | IC50 ([2]; 0.01, 0.1, 1 and 10 µM SA8, linear least squares fit Y = 1 + slope × [toxin], n = 4, room temperature (20–24 °C), ECS pH 7.35, 0.1 mg/mL BSA, CHO cells): 40.8 ± 4.9 µM | RCF_mean (remaining current fraction, I/I0) ([2]; Kv1.2, 10 nM SA8, n = 5, SEM 0.00976051): 0.9869 | RCF_mean (remaining current fraction, I/I0) ([2]; Kv1.2, 100 nM SA8, n = 4, SEM 0.0156624): 0.9412 | RCF_mean (remaining current fraction, I/I0) ([2]; Kv1.2, 1000 nM SA8, n = 4, SEM 0.0249691): 0.9151 | RCF_mean (remaining current fraction, I/I0) ([2]; Kv1.2, 10000 nM SA8, n = 6, SEM 0.0222303): 0.772 | recovery of current upon washing (of control current) ([2]; after 100 nM SA8, hKV1.2, inhibitor-free solution): ~ 85% | effect on current, in words ([2]; hKV1.2, CHO cells, 100 nM): weak block; also recorded: modest block; also recorded: weak inhibition | RCF_mean (remaining current fraction, I/I0) ([3]; TRPV1, 100 nM SA8, mean, n = 5, SEM 0.0111172): 0.9606 | effect on current, in words ([3]; hTRPV1, CHO cells, activated by 1 µM capsaicin, 100 nM SA8): no effect; also recorded: did not inhibit | RCF_mean (remaining current fraction, I/I0) ([4]; KCa1.1, 100 nM SA8, mean, n = 4, SEM 0.0158455): 1.052 | effect on current, in words ([4]; mKCa1.1, HEK 293, 100 nM SA8): no effect; also recorded: did not inhibit | RCF_mean (remaining current fraction, I/I0) ([5]; Kv1.1, 100 nM SA8, mean, n = 4, SEM 0.0202631): 1.029 | effect on current, in words ([5]; hKV1.1, CHO cells, 100 nM SA8): no effect; also recorded: did not inhibit
